{"source": "paper PMC6822764", "about": "“MitoToxy assay: A novel cell-based method for the assessment of metabolic toxicity in a multiwell plate format using a lactate FRET nanosensor, Laconic” (PLoS ONE, 2019)", "key": {"[1]": {"system": "MitoTox Reporter cells (MDA-MB-231 expressing Laconic)", "assay": "Pilot screening of 13 compounds with MitoTox Reporter cells, multiplate reader", "format": "cell-based", "conditions": "for ΔR% variation / lactate accumulation over all concentrations tested: 1, 5, and 10 μM; for ΔR% (lactate accumulation): average of 4 replicate wells, Fig 9 legend 30 minutes, 37°C; for Concentration at which toxicity / mitochondrial effects were detected in the pilot screening: tested at 1, 5 and 10 μM", "description": "MitoTox reporter cell line was cultured in Leibowitz media (Gibco) supplemented with 10% of fetal bovine serum (FBS) at 37°C at atmospheric CO2 levels in a 100 mm petri dish. Once cells reached 100% confluency, they were trypsinized using 5% trypsin (Gibco) and washed in PBS. Viability was determine using trypan blue staining and 10,000 cells were seeded into each well of a 96 well plate. Experiments in 96 well format were performed once cells reached 100% confluency after 6 days, during the incubation media was not replaced. All the plates with signal-to-noise ration below 1.3 for monomeric Teal Fluorescent Protein (mTFP) and Venus channels were discarded. Background signal was determined with KRH buffer without cells. Experiments consisted in washing out the culture media using KRH HEPES buffer containing (mM) 136 NaCl, 3 KCl, 1.25 CaCl2, 1.25 MgCl2, 10 HEPES/Tris and pH 7.2 at 37°C with 300 mOsm. Then 200 μl of KRH HEPES buffer without any carbon sources was added to each well and the baseline was measured (RMIN), then 100 μl of buffer was replaced with mitochondrial toxicant/controls and signal was measured to obtain a stimulated response (RMAX). In experiments were pCMBS was used to block lactate exit, the inhibitor was added simultaneously with the mitochondrial toxicants. Data was collected in triplicated after 5, 10, 30, and 60 minutes of incubation. All the experiments in 96 well plates were performed in an EnVision® multiplate reader (PerkinElmer). Each well was excited at 430 nm and the intensity of mTFP and Venus fluorescence emission were recorded at 485 nm and 528 nm, using a set of filters.\nWhere R(mTFP/Venus) min corresponded to the minimal change of mTFP/Venus ratio during the single-cell experiments. Results in 96 well plates experiments were expressed by the ΔR%. This parameter was obtained from the difference between the RMAX and RMIN from the same well (before-after experiment) as follow: ΔR%=(R(mTFP/Venus)max−R(mTFP/Venus)min/R(mTFP/Venus)min)x100\nMultiple comparisons versus control groups (Holm-Sidak method), Overall significance level P < 0,05.\nThe capability of the assay to identify previously described toxic drugs was explored through a pilot screening assay. We selected 13 compounds from a variety of therapeutic classes to perform a pilot screening assay using MitoTox Reporter cells and a standard multiplate reader. […] To perform the assays, we prepared master stocks for each compound in 0.2% DMSO. Assays were performed with compounds at final concentrations of 1, 5, and 10 μM and the response of MitoTox Reporter cells were measured at 5, 10, 30, and 60 minutes. […] As a negative control we selected a compound with no reported side-effects."}, "[2]": {"system": "mitochondrial membrane potential (MMP)", "conditions": "cited from earlier work"}, "[3]": {"conditions": "treatment time 6 hours, ref Li et al., 2014 [50], read-out: IC50, MMP"}}, "note": "Values joined by “and” are separate entries in the source; they are usually repeats but may differ in a detail not shown here. Equal entries are not always repeated. “Also recorded” adds a separate entry of the source. Where two headings read alike, the source gives them in different places."}
{"smiles": "COc1cc2nc(N3CCN(C(=O)c4ccco4)CC3)nc(N)c2cc1OC", "note": "[prazosin]", "values": [{"measurement": "ΔR% variation / lactate accumulation over all concentrations tested", "setting": "[1]", "value": "None of these molecules produced an important ΔR% variation"}, {"measurement": "IC50", "setting": "[2]; [3]", "value": 6.3, "unit": "µM"}]}
{"smiles": "CC(C)C(=O)Nc1ccc([N+](=O)[O-])c(C(F)(F)F)c1", "note": "[flutamide]", "values": [{"measurement": "ΔR% (lactate accumulation)", "setting": "[1]; 10 μM", "value": "8.71 ± 2.06", "unit": "%"}, {"measurement": "Concentration at which toxicity / mitochondrial effects were detected in the pilot screening", "setting": "[1]", "value": 10, "unit": "µM"}]}
{"smiles": "COc1cc([C@@H]2c3cc4c(cc3[C@@H](O[C@@H]3O[C@@H]5CO[C@@H](C)O[C@H]5[C@H](O)[C@H]3O)[C@H]3COC(=O)[C@H]23)OCO4)cc(OC)c1O", "note": "[etoposide]", "values": [{"measurement": "ΔR% variation / lactate accumulation over all concentrations tested", "setting": "[1]", "value": "None of these molecules produced an important ΔR% variation; also recorded: did not induce intra-cellular lactate accumulation"}]}
{"smiles": "CC[C@@]1(O)C(=O)OCc2c1cc1n(c2=O)Cc2cc3ccccc3nc2-1", "note": "[camptothecin]", "values": [{"measurement": "ΔR% (lactate accumulation)", "setting": "[1]; 1 μM", "value": "no change in ΔR% was detected"}, {"measurement": "ΔR% (lactate accumulation)", "setting": "[1]; 5 μM", "value": "potent effect and 13.52 ± 3.6%"}, {"measurement": "ΔR% (lactate accumulation)", "setting": "[1]; 10 μM", "value": "49.18 ± 7.4", "unit": "%"}, {"measurement": "Cytosolic lactate accumulation (concentration)", "setting": "[1]; 10 μM, inferred from the reported dynamic range and sensitivity of Laconic", "value": "over 10 mM"}, {"measurement": "Concentration at which toxicity / mitochondrial effects were detected in the pilot screening", "setting": "[1]", "value": 5, "unit": "µM"}, {"measurement": "IC50", "setting": "[2]; [3]", "value": 206, "unit": "µM"}]}
{"smiles": "CN(C)C(=N)N=C(N)N", "note": "[metformin]", "values": [{"measurement": "ΔR% variation / lactate accumulation over all concentrations tested", "setting": "[1]", "value": "None of these molecules produced an important ΔR% variation; also recorded: did not induce intra-cellular lactate accumulation"}]}
{"smiles": "CC1(C)NC(=O)N(c2ccc([N+](=O)[O-])c(C(F)(F)F)c2)C1=O", "note": "[nilutamide]", "values": [{"measurement": "ΔR% variation / lactate accumulation over all concentrations tested", "setting": "[1]", "value": "did not produce ΔR% changes at all the concentrations tested"}, {"measurement": "ΔR% variation / lactate accumulation over all concentrations tested", "setting": "[1]; listed as nilutamine", "value": "did not produce any effect"}]}
{"smiles": "CC(C)(C)c1ccc(C(O)CCCN2CCC(C(O)(c3ccccc3)c3ccccc3)CC2)cc1", "note": "(stereo not shown) [terfenadine]", "values": [{"measurement": "ΔR% (lactate accumulation)", "setting": "[1]; 1 μM", "value": "without any measurable effects"}, {"measurement": "ΔR% (lactate accumulation)", "setting": "[1]; 5 μM", "value": "without any measurable effects"}, {"measurement": "ΔR% (lactate accumulation)", "setting": "[1]; 10 μM", "value": "15.64 ± 1.32", "unit": "%"}, {"measurement": "Concentration at which toxicity / mitochondrial effects were detected in the pilot screening", "setting": "[1]", "value": 10, "unit": "µM"}, {"measurement": "IC50", "setting": "[2]; unit inferred, read-out: IC50, MMP measurements", "value": 4.4, "unit": "µM"}]}
{"smiles": "CC(=O)Oc1ccccc1C(=O)O", "note": "[aspirin, acetylsalicylic acid]", "values": [{"measurement": "ΔR% variation / lactate accumulation over all concentrations tested", "setting": "[1]", "value": "None of these molecules produced an important ΔR% variation; also recorded: did not induce intra-cellular lactate accumulation"}]}
{"smiles": "CCC(C)(C)C(=O)O[C@H]1C[C@@H](C)C=C2C=C[C@H](C)[C@H](CC[C@@H]3C[C@@H](O)CC(=O)O3)[C@H]21", "note": "[simvastatin]", "values": [{"measurement": "ΔR% variation / lactate accumulation over all concentrations tested", "setting": "[1]", "value": "None of these molecules produced an important ΔR% variation"}, {"measurement": "IC50", "setting": "[2]; [3]", "value": 63.2, "unit": "µM"}]}
